According to PubChem BioAssay AID1963451 (Molecular Pharmacology Branch, DTP, NCI, 2024):
Values joined by “and” are separate entries in the source; they are usually repeats but may differ in a detail not shown here. Identical values can stand only once.

System: 521955-158-R6-J3-PDC complex spheroid growth, % test/control
Assay: Anticancer human tumor 521955-158-R6-J3-PDC patient-derived pancreatic carcinoma cell line growth inhibition [Asc]
Settings: for viability, T/C: stronger effect = lower value
Summary of the method: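 Tumor cells were grown as complex spheroids with human endothelial cells (HUVEC) and human mesenchymal stem cells as stroma. Agents were tested alone and in combination, in half-log steps down from the clinical Cmax, or from 10 microM where Cmax was unknown.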

[1] = curve of first compound, second compound 0.00949 µM
[2] = curve of first compound, second compound 0.03 µM
[3] = curve of first compound, second compound 0.0949 µM
[4] = curve of first compound, second compound 0.3 µM
[5] = curve of first compound, second compound 0.949 µM
[6] = curve of first compound, second compound 3 µM
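Further: spheroids exposed to compounds for 7 days.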
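Wherever viability, T/C is given: 100% = DMSO vehicle control wells.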

SMILES: Cc1nc(N2CCC3(CC2)COC(C)C3N)c(CO)nc1Sc1ccnc(N)c1Cl (stereo not drawn) + CCN1C(C(=O)NC23CCC(C(=O)O)(CC2)CC3)C(c2cccc(Cl)c2F)C2(C(=O)Nc3cc(Cl)ccc32)C12CCCCC2
- IC50 [1]: > 3000 nM
- IC50 [2]: > 3000 nM
- IC50 [3]: > 3000 nM
- IC50 [4]: > 3000 nM
- IC50 [5]: > 3000 nM
- IC50 [6]: > 3000 nM
- viability, T/C (second compound 0.00949 µM, first compound 0.00949 µM): 128%
- viability, T/C (second compound 0.00949 µM, first compound 0.03 µM): 107%
- viability, T/C (second compound 0.00949 µM, first compound 0.0949 µM): 92.8%
- viability, T/C (second compound 0.00949 µM, first compound 0.3 µM): 93.8%
- viability, T/C (second compound 0.00949 µM, first compound 0.949 µM): 77.8%
- viability, T/C (second compound 0.00949 µM, first compound 3 µM): 74.5%
- viability, T/C (second compound 0.03 µM, first compound 0.00949 µM): 109%
- viability, T/C (second compound 0.03 µM, first compound 0.03 µM): 104%
- viability, T/C (second compound 0.03 µM, first compound 0.0949 µM): 91%
- viability, T/C (second compound 0.03 µM, first compound 0.3 µM): 106%
- viability, T/C (second compound 0.03 µM, first compound 0.949 µM): 93.8%
- viability, T/C (second compound 0.03 µM, first compound 3 µM): 85.8%
- viability, T/C (second compound 0.0949 µM, first compound 0.00949 µM): 115%
- viability, T/C (second compound 0.0949 µM, first compound 0.03 µM): 113%
- viability, T/C (second compound 0.0949 µM, first compound 0.0949 µM): 106%
- viability, T/C (second compound 0.0949 µM, first compound 0.3 µM): 82.6%
- viability, T/C (second compound 0.0949 µM, first compound 0.949 µM): 82.2%
- viability, T/C (second compound 0.0949 µM, first compound 3 µM): 79.8%
- viability, T/C (second compound 0.3 µM, first compound 0.00949 µM): 112%
- viability, T/C (second compound 0.3 µM, first compound 0.03 µM): 82.6%
- viability, T/C (second compound 0.3 µM, first compound 0.0949 µM): 113%
- viability, T/C (second compound 0.3 µM, first compound 0.3 µM): 95%
- viability, T/C (second compound 0.3 µM, first compound 0.949 µM): 83%
- viability, T/C (second compound 0.3 µM, first compound 3 µM): 92.6%
- viability, T/C (second compound 0.949 µM, first compound 0.00949 µM): 133%
- viability, T/C (second compound 0.949 µM, first compound 0.03 µM): 104%
- viability, T/C (second compound 0.949 µM, first compound 0.0949 µM): 93.5%
- viability, T/C (second compound 0.949 µM, first compound 0.3 µM): 92.4%
- viability, T/C (second compound 0.949 µM, first compound 0.949 µM): 82.2%
- viability, T/C (second compound 0.949 µM, first compound 3 µM): 83.1%
- viability, T/C (second compound 3 µM, first compound 0.00949 µM): 114%
- viability, T/C (second compound 3 µM, first compound 0.03 µM): 90.2%
- viability, T/C (second compound 3 µM, first compound 0.0949 µM): 104%
- viability, T/C (second compound 3 µM, first compound 0.3 µM): 84.1%
- viability, T/C (second compound 3 µM, first compound 0.949 µM): 87.5%
- viability, T/C (second compound 3 µM, first compound 3 µM): 72.3%

SMILES: C=CC(=O)N1CCN(c2nc(=O)n(-c3c(C)ccnc3C(C)C)c3nc(-c4c(O)cccc4F)c(F)cc23)C(C)C1 (stereo not drawn)
- viability, T/C (compound 0.0316 µM): 104% and 94.7% and 96.5%
- viability, T/C (compound 0.1 µM): 105% and 107% and 89.4%
- viability, T/C (compound 0.316 µM): 95.1% and 92% and 95.3%
- viability, T/C (compound 1 µM): 111% and 100% and 122%
- viability, T/C (compound 3.16 µM): 112% and 125% and 121%
- viability, T/C (compound 10 µM): 93.7% and 124% and 118%
- IC50 (curve of compound): > 10000 nM

SMILES: CCN1CCN(Cc2ccc(Nc3ncc(F)c(-c4cc(F)c5nc(C)n(C(C)C)c5c4)n3)nc2)CC1 + CCN1C(C(=O)NC23CCC(C(=O)O)(CC2)CC3)C(c2cccc(Cl)c2F)C2(C(=O)Nc3cc(Cl)ccc32)C12CCCCC2
- IC50 [1]: > 1000 nM
- IC50 [2]: > 1000 nM
- IC50 [3]: > 1000 nM
- IC50 [4]: > 1000 nM
- IC50 [5]: > 1000 nM
- IC50 [6]: > 1000 nM
- viability, T/C (second compound 0.00949 µM, first compound 0.00316 µM): 102%
- viability, T/C (second compound 0.00949 µM, first compound 0.01 µM): 90.3%
- viability, T/C (second compound 0.00949 µM, first compound 0.0316 µM): 79.1%
- viability, T/C (second compound 0.00949 µM, first compound 0.1 µM): 101%
- viability, T/C (second compound 0.00949 µM, first compound 0.316 µM): 89.1%
- viability, T/C (second compound 0.00949 µM, first compound 1 µM): 88.6%
- viability, T/C (second compound 0.03 µM, first compound 0.00316 µM): 101%
- viability, T/C (second compound 0.03 µM, first compound 0.01 µM): 104%
- viability, T/C (second compound 0.03 µM, first compound 0.0316 µM): 88.5%
- viability, T/C (second compound 0.03 µM, first compound 0.1 µM): 92.2%
- viability, T/C (second compound 0.03 µM, first compound 0.316 µM): 92.9%
- viability, T/C (second compound 0.03 µM, first compound 1 µM): 102%
- viability, T/C (second compound 0.0949 µM, first compound 0.00316 µM): 112%
- viability, T/C (second compound 0.0949 µM, first compound 0.01 µM): 101%
- viability, T/C (second compound 0.0949 µM, first compound 0.0316 µM): 97.4%
- viability, T/C (second compound 0.0949 µM, first compound 0.1 µM): 95.5%
- viability, T/C (second compound 0.0949 µM, first compound 0.316 µM): 91.3%
- viability, T/C (second compound 0.0949 µM, first compound 1 µM): 106%
- viability, T/C (second compound 0.3 µM, first compound 0.00316 µM): 106%
- viability, T/C (second compound 0.3 µM, first compound 0.01 µM): 112%
- viability, T/C (second compound 0.3 µM, first compound 0.0316 µM): 102%
- viability, T/C (second compound 0.3 µM, first compound 0.1 µM): 87.8%
- viability, T/C (second compound 0.3 µM, first compound 0.316 µM): 93.1%
- viability, T/C (second compound 0.3 µM, first compound 1 µM): 90.2%
- viability, T/C (second compound 0.949 µM, first compound 0.00316 µM): 108%
- viability, T/C (second compound 0.949 µM, first compound 0.01 µM): 98.5%
- viability, T/C (second compound 0.949 µM, first compound 0.0316 µM): 109%
- viability, T/C (second compound 0.949 µM, first compound 0.1 µM): 93.2%
- viability, T/C (second compound 0.949 µM, first compound 0.316 µM): 93.3%
- viability, T/C (second compound 0.949 µM, first compound 1 µM): 102%
- viability, T/C (second compound 3 µM, first compound 0.00316 µM): 106%
- viability, T/C (second compound 3 µM, first compound 0.01 µM): 101%
- viability, T/C (second compound 3 µM, first compound 0.0316 µM): 91.5%
- viability, T/C (second compound 3 µM, first compound 0.1 µM): 84.8%
- viability, T/C (second compound 3 µM, first compound 0.316 µM): 103%
- viability, T/C (second compound 3 µM, first compound 1 µM): 93.2%

SMILES: C#Cc1c(F)ccc2cc(O)cc(-c3ncc4c(N5CC6CCC(C5)N6)nc(OCC56CCCN5CC(F)C6)nc4c3F)c12 (stereo not drawn)
- viability, T/C (compound 0.0316 µM): 60.7% and 66.5% and 60.8%
- viability, T/C (compound 0.1 µM): 52.9% and 52% and 53.5%
- viability, T/C (compound 0.316 µM): 46% and 58.3% and 47.4%
- viability, T/C (compound 1 µM): 48% and 45.1% and 47%
- viability, T/C (compound 3.16 µM): 33.9% and 35.5% and 44.9%
- viability, T/C (compound 10 µM): 18.6% and 32.2%
- IC50 (curve of compound): 342 nM and 452 nM and 387 nM
